Among the test systems are ACHN renal; DLD-1 colon; HCC-2998 colon; M19-MEL melanoma; MALME-3M melanoma; MCF7 breast; NCI-H460 lung; NCI/ADR-RES ovarian; SF-268 CNS; SN12C renal; TK-10 renal.
Holding throughout (experiment): NCI tumour cell line growth inhibition, 48 h

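1) Cells in 96-well plates. 2) Compound, 48 h, 5 concentrations. 3) Linear interpolation between surrounding doses. 4) Unreached endpoint = highest concentration. At the GI50, growth is halved. Definition used: TGI = concentration required for complete inhibition of growth.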 A value given as a limit tells only on which side of the number the result lay.

In the case of `CNC=O`, the TGI in the assay with ACHN renal is more than 10000 µM; with DLD-1 colon it was more than 10000 µM; in the assay on HCC-2998 colon it was less than 3980 µM; with M19-MEL melanoma, more than 10000 µM; in the assay on MALME-3M melanoma it was more than 10000 µM; in the assay on MCF7 breast, more than 10000 µM. Moreover, the TGI is more than 10000 µM in the assay on NCI-H460 lung; more than 10000 µM in the assay on NCI/ADR-RES ovarian; more than 10000 µM in the assay on SF-268 CNS; more than 7740 µM with SN12C renal; more than 10000 µM in the assay on TK-10 renal.

As to `Nc1ccccc1Sc1ccc(Cl)cc1`, the TGI is 99.2 µM in the assay with ACHN renal; more than 100 µM with DLD-1 colon; more than 100 µM in the assay on HCC-2998 colon; 60.7 µM with M19-MEL melanoma; more than 100 µM with MALME-3M melanoma; 68.9 µM with NCI-H460 lung. Also, the TGI in the assay on SF-268 CNS is more than 100 µM; in the assay with SN12C renal, 56.1 µM; with TK-10 renal, more than 100 µM.

In the case of `COc1cc(/C=C/C(=O)O)ccc1O`, the TGI in the assay on ACHN renal, with HCC-2998 colon, in the assay with MALME-3M melanoma, in the assay on MCF7 breast, in the assay with NCI-H460 lung and with NCI/ADR-RES ovarian was more than 100 µM each time. The TGI in the assay with SF-268 CNS, with SN12C renal and with TK-10 renal was more than 100 µM in each case.

For `COc1cc2cnc3c(c2cc1OC)Cc1cc2c(cc1-3)OCO2`, the GI50 was less than 0.0143 µM in the assay on ACHN renal; less than 0.01 µM in the assay with HCC-2998 colon; less than 0.01 µM with MALME-3M melanoma; 0.0333 µM with MCF7 breast; less than 0.01 µM in the assay with NCI-H460 lung; less than 0.01 µM in the assay with NCI/ADR-RES ovarian. Further, the GI50 in the assay on SN12C renal is more than 100 µM; in the assay on TK-10 renal it was less than 0.01 µM. Moreover, the TGI in the assay with ACHN renal is 19.4 µM; in the assay with HCC-2998 colon, 0.0562 µM; in the assay with MALME-3M melanoma, 74.9 µM; in the assay with MCF7 breast, more than 81.8 µM; with NCI-H460 lung, 0.034 µM; with NCI/ADR-RES ovarian, more than 81.5 µM. Further, the TGI is 31.3 µM in the assay on SF-268 CNS, more than 100 µM in the assay with SN12C renal and 2.83 µM in the assay with TK-10 renal.

With `C/C(=C1/N=C(c2cc([N+](=O)[O-])ccc2Cl)N(C2=CC=C(Cl)CC2)C1=O)c1cc2ccccc2oc1=O`, the TGI in the assay with ACHN renal, with DLD-1 colon, in the assay on HCC-2998 colon, with M19-MEL melanoma, in the assay on MALME-3M melanoma and in the assay with NCI-H460 lung was more than 100 µM each time. The TGI with SF-268 CNS and in the assay on SN12C renal was more than 100 µM in each case.

As to `CCCCN(CCCC)c1ccc(N=Nc2ccc(S(=O)(=O)O)cc2)cc1`, the TGI in the assay with ACHN renal is more than 100 µM; in the assay with HCC-2998 colon, 73.7 µM; in the assay with MCF7 breast, 49.6 µM; in the assay on NCI-H460 lung it was more than 100 µM; in the assay on NCI/ADR-RES ovarian, 70.9 µM; in the assay with SF-268 CNS, more than 100 µM. Besides, the results for the TGI in the assay with SN12C renal and in the assay on TK-10 renal were 85 µM and more than 100 µM, respectively.

Take `O=S(=O)(O)c1ccc(N=Nc2ccc(N=Nc3ccc(/C=C/c4ccc(N=[N+]([O-])c5ccc(/C=C/c6ccc(N=Nc7ccc(N=Nc8ccc(S(=O)(=O)O)cc8)c8ccccc78)cc6S(=O)(=O)O)c(S(=O)(=O)O)c5)cc4S(=O)(=O)O)c(S(=O)(=O)O)c3)c3ccccc23)cc1`: the TGI in the assay on DLD-1 colon, in the assay with HCC-2998 colon, in the assay on M19-MEL melanoma, in the assay with MALME-3M melanoma, in the assay on MCF7 breast and with NCI-H460 lung was more than 100 µM throughout. The TGI in the assay on NCI/ADR-RES ovarian, in the assay with SF-268 CNS and with SN12C renal was more than 100 µM in each case.

For `CC1=CC[C@H](C)C(C)(C)C1/C=C/C(C)=C/CC[C@@]1(CO)[C@H](CCCO)/C(=C(/C)C=O)CC[C@]1(C)O` (stereo partly drawn), the TGI with ACHN renal came out at 16.6 µM; with DLD-1 colon it was 15.1 µM; in the assay on HCC-2998 colon it was 4.41 µM; in the assay on M19-MEL melanoma, 53.3 µM; in the assay with MALME-3M melanoma, 16.9 µM; in the assay on NCI-H460 lung, 13.5 µM. Also, the TGI is 25.1 µM in the assay with SF-268 CNS, 19.1 µM in the assay with SN12C renal and 15.3 µM in the assay with TK-10 renal.

Consider `CC(=O)/C=C/c1c[nH]c(=O)[nH]c1=O`, for which the TGI in the assay with DLD-1 colon is 790 µM; with HCC-2998 colon it was 480 µM; with M19-MEL melanoma, 771 µM; with MALME-3M melanoma it was 444 µM; in the assay with MCF7 breast it was 516 µM; with NCI-H460 lung, 613 µM. The results for the TGI with NCI/ADR-RES ovarian, with SF-268 CNS and in the assay on SN12C renal were 781 µM, 720 µM and 573 µM, respectively.

`C=CCN1C(=O)/C(=C/c2cccs2)N=C1SC1OC(COC(=O)c2ccccc2)C(OC(=O)c2ccccc2)C1OC(=O)c1ccccc1` (stereo not drawn): the TGI in the assay with ACHN renal, in the assay on HCC-2998 colon, in the assay with MALME-3M melanoma, in the assay on MCF7 breast, with NCI-H460 lung and with NCI/ADR-RES ovarian was more than 100 µM throughout. Further, in the assay with TK-10 renal, the TGI was more than 100 µM.

Regarding `C=C1C(C[C@@H]2O[C@H]3C[C@H]4O[C@@]5(C[C@@H]6O[C@]7(C[C@H](C)[C@@H]8O[C@@H]9CC(C(O)CO)O[C@@H]9C[C@@H]8O7)C[C@H](C)[C@@H]6O5)C[C@H]4O[C@H]3[C@H](C)[C@H]2O)O[C@@H](CC[C@@H]2O[C@@H](CC[C@@]34CC5O[C@H]6C(O[C@H]7CC[C@H](CC(=O)OC)O[C@@H]7[C@@H]6O3)[C@H]5O4)CC2=C)C[C@H]1C` (stereo partly drawn), the TGI is more than 1 µM in the assay with ACHN renal; more than 1 µM in the assay with MCF7 breast; 0.0772 µM with NCI/ADR-RES ovarian; more than 1 µM with SF-268 CNS; more than 1 µM in the assay on SN12C renal; more than 1 µM in the assay with TK-10 renal.

As to `C[C@@H]1CCN(C(=O)CC#N)C[C@@H]1N(C)c1ncnc2[nH]ccc12`, the GI50 is 57.2 µM in the assay with ACHN renal; more than 100 µM with HCC-2998 colon; 82.5 µM with MALME-3M melanoma; more than 100 µM in the assay with MCF7 breast; more than 100 µM in the assay on NCI-H460 lung; more than 100 µM with NCI/ADR-RES ovarian. The GI50 was 73.1 µM in the assay with SF-268 CNS and 38.1 µM in the assay with TK-10 renal. The TGI in the assay with ACHN renal, with HCC-2998 colon, in the assay on MALME-3M melanoma, with MCF7 breast, in the assay with NCI-H460 lung and with NCI/ADR-RES ovarian was more than 100 µM in each case. Besides, the TGI with SF-268 CNS and in the assay with TK-10 renal was more than 100 µM throughout.

For the origin of these results see PubChem BioAssay (NCI).
